According to patent publication US9345706B2, “Benzoxazole kinase inhibitors and methods of use” (Intellikine LLC, priority 2008, dated 2016):
pIC50: −log10 of the molar value.

Assays:
[1] = system: HCT116 cells or SW620 cells; test: Cell cycle progression, G0/G1 arrest; assay type: cell-based; conditions: compared to an inhibitor that inhibits one or more PI3-kinases
Experimental: FIG. 9A-9B depict the effects of a compound of Table 1 of the present invention on cell cycle progression in HCT116 and SW620 cells as compared to various other compounds. FIG. 9A depicts the inhibiting effect of the compound at 500 nM on cell cycle progression as compared to DMSO vehicle control and as compared to 10 uM doxorubicin. FIG. 9B depicts the effect of the indicated compounds on the population of cells residing in G0/G1 phase during culture for two different cell lines.
In some embodiments, one or more compounds of the invention including those in Table 1 may cause cell cycle arrest. […] In some cases, about 35%, 40%, 50%, 55%, 60%, 65%, 70% or more of cells treated with one or more compounds of the invention may be in the G0/G1 cell cycle stage.

[2] = system: xenograft tumors; test: Tumor volume of xenograft tumors in female nude athymic mice; assay type: in vivo, mouse; conditions: U87-MG, A549, ZR-75-1, or 786-0 tumor cells
Experimental: For example, treatment with one or more compounds of the invention results in a reduction in the growth or tumor volume caused by engraftment of U87-MG, A549, ZR-75-1, or 786-0 tumor cells in nude mice. The compounds of the invention may be administered orally, subcutaneously, or intravenously, or any other compound administration methods provided herein. In some cases, the compounds are administered once a week, every other day, once a day, twice a day, three times a day, four times a day or more. In some cases, 0.01 mg/kg of compound is administered, 0.05 mg/kg, 0.1 mg/kg, 0.2 mg/kg, 0.4 mg/kg, 0.5 mg/kg, 1 mg/kg, 1.5 mg/kg, 2 mg/kg, 3 mg/kg, 4 mg/kg, 5 mg/kg, 7.5 mg/kg, 10 mg/kg, 100 mg/kg or more compound is administered at a time. In some cases, a significant reduction in tumor volume may be detected within 5, 10, 15, 20, 25, or 30 days of tumor engraftment.
Mice are inoculated subcutaneously in the right flank with 0.01 to 0.5 ml of tumor cells such as those listed above (approximately 1.0×10^5 to 1.0×10^8 cells/mouse). Five to 10 days following inoculation, tumors are measured using calipers and tumor weight is calculated, for example using the animal study management software, such as Study Director V.1.6.70 (Study Log). […] Body weights are recorded when the mice are pair-matched. […]

[3] = biological target: T1, PI3K α (Homo sapiens, UniProt P42336); test: PI3K α kinase inhibition assay; assay type: biochemical
T1 construct: purchased Upstate
T1 sequence (P42336 whole entry): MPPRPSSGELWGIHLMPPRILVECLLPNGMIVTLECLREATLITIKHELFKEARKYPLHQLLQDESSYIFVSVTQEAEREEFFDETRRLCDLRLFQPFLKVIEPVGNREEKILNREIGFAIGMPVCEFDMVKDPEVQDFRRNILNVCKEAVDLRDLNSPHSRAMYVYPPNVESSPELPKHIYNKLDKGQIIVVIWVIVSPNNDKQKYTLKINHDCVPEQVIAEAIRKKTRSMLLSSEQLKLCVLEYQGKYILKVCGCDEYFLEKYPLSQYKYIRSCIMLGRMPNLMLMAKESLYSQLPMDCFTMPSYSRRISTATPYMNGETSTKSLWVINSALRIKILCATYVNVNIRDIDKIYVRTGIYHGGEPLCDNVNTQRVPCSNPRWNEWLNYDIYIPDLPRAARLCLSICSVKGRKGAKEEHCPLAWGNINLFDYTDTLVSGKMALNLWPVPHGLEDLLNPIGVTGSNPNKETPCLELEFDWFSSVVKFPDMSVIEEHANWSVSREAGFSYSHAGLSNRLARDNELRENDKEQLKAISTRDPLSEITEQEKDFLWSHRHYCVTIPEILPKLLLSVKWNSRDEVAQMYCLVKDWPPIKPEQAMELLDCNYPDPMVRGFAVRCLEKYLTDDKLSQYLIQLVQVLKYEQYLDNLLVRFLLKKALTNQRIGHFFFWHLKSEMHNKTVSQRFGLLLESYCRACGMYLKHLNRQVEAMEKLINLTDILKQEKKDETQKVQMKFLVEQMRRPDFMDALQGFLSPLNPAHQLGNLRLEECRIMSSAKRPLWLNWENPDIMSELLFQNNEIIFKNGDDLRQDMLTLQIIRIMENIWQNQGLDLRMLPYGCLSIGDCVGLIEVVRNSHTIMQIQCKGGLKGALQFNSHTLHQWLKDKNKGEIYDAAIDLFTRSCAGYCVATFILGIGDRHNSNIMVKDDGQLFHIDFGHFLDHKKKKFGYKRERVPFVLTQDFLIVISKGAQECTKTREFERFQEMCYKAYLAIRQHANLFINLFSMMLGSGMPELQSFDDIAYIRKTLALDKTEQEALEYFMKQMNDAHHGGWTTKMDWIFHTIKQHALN
T1 sequence (P27986 whole entry partner): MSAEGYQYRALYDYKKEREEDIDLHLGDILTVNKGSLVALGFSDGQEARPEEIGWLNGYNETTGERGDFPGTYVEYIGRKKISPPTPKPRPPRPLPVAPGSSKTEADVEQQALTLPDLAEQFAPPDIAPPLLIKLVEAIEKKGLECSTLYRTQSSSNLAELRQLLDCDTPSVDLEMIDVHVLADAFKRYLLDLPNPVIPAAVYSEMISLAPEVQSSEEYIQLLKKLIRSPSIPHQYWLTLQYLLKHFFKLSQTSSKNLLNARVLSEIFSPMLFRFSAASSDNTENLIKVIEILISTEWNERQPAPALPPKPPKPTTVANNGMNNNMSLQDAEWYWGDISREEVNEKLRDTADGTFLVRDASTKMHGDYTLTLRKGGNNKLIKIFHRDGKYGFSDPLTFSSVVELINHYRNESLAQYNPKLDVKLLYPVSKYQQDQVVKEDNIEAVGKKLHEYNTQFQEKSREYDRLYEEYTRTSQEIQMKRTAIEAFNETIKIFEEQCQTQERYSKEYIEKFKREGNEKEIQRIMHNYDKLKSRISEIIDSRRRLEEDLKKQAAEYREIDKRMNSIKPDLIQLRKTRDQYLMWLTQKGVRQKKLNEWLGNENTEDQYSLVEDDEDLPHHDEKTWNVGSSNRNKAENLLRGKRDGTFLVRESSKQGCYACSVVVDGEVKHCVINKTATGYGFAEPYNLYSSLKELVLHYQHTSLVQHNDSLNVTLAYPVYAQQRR

| Compound | degree of G0/G1 arrest [1] | tumor volume of xenograft tumors [2] | pIC50 [3] |
| --- | --- | --- | --- |
| CC(C)n1nc(-c2ccc3oc(N)nc3c2)c2c(N)ncnc21 [compound 1] | comparable or a greater degree of G0/G1 arrest | cause a reduction in tumor volume of xenograft tumors | – |
| COC(=O)Nc1noc2ccc(-c3nn(C(C)C)c4ncnc(N)c34)cc12 [compound 19] | – | – | < 5.00 |
| COC(=O)Nc1noc2cc(-c3nn(C(C)C)c4ncnc(N)c34)ccc12 [compound 20] | – | – | > 5.00 |
